According to the supplement of paper PMC10878532, “Sperm Toolbox—A selection of small molecules to study human spermatozoa” (PLOS ONE, 2024):
Where a name gives a salt, the structure may show the parent alone.

How the values were obtained:
human spermatozoa [1] = test: total motile sperm, percent change vs DMSO (non-capacitating); higher = more of the measured sperm population than DMSO, for viability, fewer PI-positive (dead) cells than DMSO
human spermatozoa [2] = test: hyperactivated motile sperm, percent change vs DMSO (capacitating); higher = more of the measured sperm population than DMSO, for viability, fewer PI-positive (dead) cells than DMSO; conditions: incubation time: 30min incubation
HepG2 = HepG2 toxicity (resazurin), effect normalised to DMSO (DMSO = 0); higher = more features changed / larger toxic effect; conditions: incubation time: 70h incubation
HeLa [3] = test: Cell Painting percent induction (share of features beyond 2 z-scores vs DMSO); higher = more features changed / larger toxic effect; extreme values may be limits of the assay; conditions: incubation time: 24h incubation
HeLa [4] = test: HeLa toxicity: nuclei-count effect normalised to DMSO (DMSO = 0); higher = more features changed / larger toxic effect; conditions: incubation time: 24h incubation
human spermatozoa [5] = test: progressively motile sperm, percent change vs DMSO (capacitating); higher = more of the measured sperm population than DMSO, for viability, fewer PI-positive (dead) cells than DMSO; conditions: incubation time: 30min incubation
human spermatozoa [6] = test: acrosome-reacted (PNA+) sperm after agonist cocktail, percent change vs DMSO (capacitating); higher = more of the measured sperm population than DMSO, for viability, fewer PI-positive (dead) cells than DMSO; conditions: incubation time: 3h, capacitating + agonist cocktail 1h
human spermatozoa [7] = test: progressively motile sperm, percent change vs DMSO (non-capacitating); higher = more of the measured sperm population than DMSO, for viability, fewer PI-positive (dead) cells than DMSO; extreme values may be limits of the assay
human spermatozoa [8] = test: viability fold change, 1 - (PI-positive fraction / DMSO median); higher = more of the measured sperm population than DMSO, for viability, fewer PI-positive (dead) cells than DMSO; conditions: incubation time: 3h, non-capacitating
human spermatozoa [9] = test: change in acrosome-reacted (PNA+) sperm vs DMSO, no agonist (capacitating); higher = more of the measured sperm population than DMSO, for viability, fewer PI-positive (dead) cells than DMSO; conditions: incubation time: 3h
[10] = incubation time: 10min incubation, 9.99 µM
[11] = incubation time: 10min incubation, 29.9 µM
[12] = incubation time: 3h incubation, 9.99 µM
[13] = incubation time: 3h incubation, 29.9 µM
[14] = incubation time: 6h incubation, 9.99 µM
[15] = incubation time: 6h incubation, 29.9 µM
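Throughout, for progressively motile sperm, percent change vs DMSO (non-capacitating): pooled live human sperm from at least 3 donors, tracked by automated microscopy in 0.5 s time-lapse movies, compounds at 10 and 30 µM, versus median of 16 DMSO wells per plate.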
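Throughout, for total motile sperm, percent change vs DMSO (non-capacitating): sperm pooled from at least 3 donors, tracked in 0.5 s time-lapse movies by automated microscopy after 10 min, 3 h or 6 h with compound at 10 or 30 µM.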

Structure (SMILES)	total motile sperm (human spermatozoa [1]; [10]) [%]	total motile sperm (human spermatozoa [1]; [11]) [%]	total motile sperm (human spermatozoa [1]; [12]) [%]	total motile sperm (human spermatozoa [1]; [13]) [%]	total motile sperm (human spermatozoa [1]; [14]) [%]	total motile sperm (human spermatozoa [1]; [15]) [%]	hyperactivated motile sperm (human spermatozoa [2]; 9.99 µM) [%]	hyperactivated motile sperm (human spermatozoa [2]; 29.9 µM) [%]	HepG2 toxicity (HepG2; 10 µM) [%]	HepG2 toxicity (HepG2; 30 µM) [%]	Cell Painting percent induction (HeLa [3]; 9.99 µM) [%]	Cell Painting percent induction (HeLa [3]; 29.9 µM) [%]	HeLa toxicity: nuclei-count effect normalised (HeLa [4]; 9.99 µM) [%]	HeLa toxicity: nuclei-count effect normalised (HeLa [4]; 29.9 µM) [%]	progressively motile sperm (human spermatozoa [5]; 9.99 µM) [%]	progressively motile sperm (human spermatozoa [5]; 29.9 µM) [%]	acrosome-reacted (human spermatozoa [6]; 9.99 µM) [%]	acrosome-reacted (human spermatozoa [6]; 29.9 µM) [%]	progressively motile sperm (human spermatozoa [7]; [10]) [%]	progressively motile sperm (human spermatozoa [7]; [11]) [%]	progressively motile sperm (human spermatozoa [7]; [12]) [%]	progressively motile sperm (human spermatozoa [7]; [13]) [%]	progressively motile sperm (human spermatozoa [7]; [14]) [%]	progressively motile sperm (human spermatozoa [7]; [15]) [%]	viability fold change (human spermatozoa [8]; 9.99 µM)	viability fold change (human spermatozoa [8]; 29.9 µM)	change in acrosome-reacted (human spermatozoa [9]; 9.99 µM) [%]	change in acrosome-reacted (human spermatozoa [9]; 29.9 µM) [%]
COc1cc(C(=O)N2CCC(N3CCN(C)CC3)CC2)ccc1Nc1ncc2c(n1)N(C)c1ccccc1C(=O)N2C [LRRK2-IN-1]	-2.77	-1.16	-9.9	-13	-11.9	-17.6	224	215	7.52	56.2	5.8	10.2	44.2	53.9	7.96	4.98	58.9	103	31.1	27.8	57.2	50.6	62.8	43.3	-0.856	-0.909	1.4	1.43
CC(C)c1ccc2c(c1)CC[C@H]1[C@](C)(CN)CCC[C@]21C [Leelamine hydrochloride]	-0.495	-12.1	1.52	-51.7	-1.74	-63.5	-31	-87.5	102	103	25.1	36.4	88.2	98.4	4.41	-53.6	41.7	60.2	15.1	-12.8	51.8	-74.2	59.5	-84.3	-1.89	-2.79	5.38	14.4
C[C@]1(O)C[C@@H](c2nc(-c3ccc4ccc(-c5ccccc5)nc4c3)c3c(N)nccn32)C1 [Linsitinib]	2.7	5.16	-8.39	-6.08	-8.05	-11.2	219	114	-2.88	27.2	1.62	0.144	2.74	25	10.2	14.7	115	113	43.2	45.9	71.3	65.1	93.9	79.2	-1.24	-1.48	1.26	1.92
CCCCCCCCCCCCCCCCOCC(COCC(F)(F)F)OP(=O)([O-])OC (centres undefined) [MJ33]	2.25	4.52	-13.2	0.791	-9.12	-4.03	21.6	9.77	-0.425	2.58	0	0.036	6.41	1	10.8	15.1	6.57	19.6	3.5	11.9	-6.92	-2.7	-4.8	-4.44	-0.678	-0.975	0.541	1
COCC(=O)O[C@]1(CCN(C)CCCc2nc3ccccc3[nH]2)CCc2cc(F)ccc2[C@@H]1C(C)C [Mibefradil]	-1.6	0.488	-3.96	-8.13	-7.2	-14.3	-13.7	-48.1	14	103	5.66	43.7	35.6	97.9	3.94	6.24	18.3	38.1	1.95	0.528	16.4	25.7	27.4	23.4	-1.48	-2.28	0.323	1.49
CCCCN1C[C@@H](O)[C@H](O)[C@H](O)[C@@H]1CO [Miglustat]	-1.47	0.804	-1.56	-0.192	-5.48	-3.6	12.2	2.46	5.75	-4.38	0	0	0.0668	-3.87	5.12	9.04	-0.571	-6.96	-0.816	3.26	9.63	8.04	8.15	7.52	-0.2	0.248	-0.0821	-0.0793
CC(C)[C@H]1c2ccc(F)cc2CC[C@@]1(CCN(C)CCCc1nc2ccccc2[nH]1)OC(=O)C1CC1 [NNC 55-0396 dihydrochloride]	0.104	-33.4	-15	-93.6	-24.8	-93	-62	-82.2	102	103	27.1	14.2	97.3	95.5	4.2	-98.6	52.4	51.1	5.26	-62.2	16.3	-100	7.86	-100	-1.31	-2.3	4.14	29.2
Nc1ncnc2c1c(-c1cccc(OCc3ccccc3)c1)cn2[C@H]1C[C@@H](CN2CCC2)C1 [NVP-AEW541]	-0.708	-2.42	2.29	-8.07	-0.444	-10.1	16.7	-13.9	82.9	103	8.93	57.6	27.7	99.5	1.09	5.49	10.6	31.6	6.28	11.5	31.9	34.1	48.5	31.5	-0.326	-0.581	0.03	0.662
